Consider four compounds from patent publication US9073874B2, “Cyclic N,N′-diarylthioureas and N,N′-diarylureas-androgen receptor antagonists, anticancer agent, method for preparation and use thereof” (priority 2010, dated 2015).

Structures are written as SMILES. “Also recorded” adds a separate entry of the source.

The target in one data set is T1, androgen receptors (Homo sapiens, UniProt P10275, T878A).
T1 construct: host or cells: LNCaP
T1 sequence (P10275 1-920 T878A): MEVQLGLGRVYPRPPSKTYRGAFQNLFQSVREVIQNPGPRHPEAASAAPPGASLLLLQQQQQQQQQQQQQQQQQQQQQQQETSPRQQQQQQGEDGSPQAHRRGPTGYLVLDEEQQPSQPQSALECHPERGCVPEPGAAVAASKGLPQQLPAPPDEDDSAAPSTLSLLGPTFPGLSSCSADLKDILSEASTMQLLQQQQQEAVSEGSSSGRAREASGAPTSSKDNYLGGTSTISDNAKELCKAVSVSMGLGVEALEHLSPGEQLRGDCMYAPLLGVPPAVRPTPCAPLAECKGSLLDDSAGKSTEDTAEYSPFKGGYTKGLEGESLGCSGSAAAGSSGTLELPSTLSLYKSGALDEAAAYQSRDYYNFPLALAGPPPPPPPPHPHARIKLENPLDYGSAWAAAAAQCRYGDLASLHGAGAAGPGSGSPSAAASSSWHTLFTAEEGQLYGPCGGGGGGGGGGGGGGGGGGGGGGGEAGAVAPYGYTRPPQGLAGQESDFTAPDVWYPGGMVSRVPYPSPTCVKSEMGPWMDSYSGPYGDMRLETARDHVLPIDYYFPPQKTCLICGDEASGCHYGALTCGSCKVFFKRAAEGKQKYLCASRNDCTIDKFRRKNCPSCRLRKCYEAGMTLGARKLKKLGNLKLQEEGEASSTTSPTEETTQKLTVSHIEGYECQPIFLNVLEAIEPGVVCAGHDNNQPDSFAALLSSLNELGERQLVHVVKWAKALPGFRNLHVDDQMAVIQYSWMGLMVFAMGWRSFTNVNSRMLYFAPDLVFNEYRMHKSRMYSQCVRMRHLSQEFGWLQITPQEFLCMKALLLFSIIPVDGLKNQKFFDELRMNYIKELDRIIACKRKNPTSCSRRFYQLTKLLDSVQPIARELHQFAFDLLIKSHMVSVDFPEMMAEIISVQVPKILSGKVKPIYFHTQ
Put plainly: cell-based. The class given is cell-based. As for the experimental part:
The expression of PSA was measured in the culture medium 24 hours thereafter (FIG. 1). […] The LnCAP cells were cultured for a further 5 days and the number of viable cells was then calculated.
FIG. 1. Inhibition of DHT-stimulated PSA expression in LnCAP cells.
These cells are sensitive towards 5-a-dihydrotestosterone (DHT) and in the presence thereof produce cancer markers (PSA). […] Before the experiment, the cells were washed and suspended in the same medium, in which, however, a serum treated with charcoal for removal of hormone traces was used instead of calf serum. The cells (10 000 in total) were embedded into the wells of 96-well plates at 100 μl per well and left for 4 days in an incubator at 37° C. […] The cells were incubated for a further 5 days under the same conditions. Then, samples of the supracellular medium were taken and analyzed for PSA. The test was carried out according to the protocol recommended by the manufacturer of the kit for PSA measurement (Alpha Diagnostic International, USA). After wetting the wells containing PSA antibodies attached to their bottoms, 25 μl of test compounds and 100 μl of PSA antibodies pre-conjugated to horseradish peroxidase were added successively to each well. Following a 30-minute incubation at room temperature, the content of each well was removed, the wells were washed several times, and 100 μl of a peroxidase chromogenic substrate was then added to each well. […] Based on data about the dependence of DHT-related reduction of PSA synthesis on the concentration of test compounds, dose-response curves were plotted to determine IC50 values. Said values were used for calculating apparent inhibition constants (Ki) for compounds of general formula I according to Cheng-Prusoff equation. [Cheng, Y., Prusoff, W. H. “Relationship between the inhibition constant (Ki) and the concentration of inhibitor which causes 50 percent inhibition (IC50) of an enzymatic reaction”. Biochem Pharmacol.

Data set [1] in a line: Distribution in plasma, brain and prostate after single IV administration in rats. The class given is in vivo. Conditions: for concentration at 30 min / concentration at 120 min: rat, plasma; for concentration at 30 min / concentration at 120 min / Brain / Plasma / Prostate: Mean ± SD, n = 3.
The test system of a further data set is CYP 3A. Put plainly: CYP 3A induction assay. Format: in vitro ADME.
Data set [2] is described as follows: Maximum tolerated dose, peroral once a day for 5 days in CD1 male mice. Format: in vivo. As for the experimental part:
The maximum tolerated doses (MTD) of novel antagonists (R)-1 and their analog Ia were determined in experiments on CD1 male mice at peroral administration once a day for 5 days in doses of 10, 30, and 100 mg/kg. The compound was dissolved in sterile water with addition of Tween 80. Sterile water with Tween 80 was given to control animals (Placebo group). Animals' body weight and mortality rate were estimated. Statistical comparison of groups was carried out according to a non-parametric ANOVA test using Statistica software.

In a further data set the test system is LnCAP-Z2 tumors. The data set is described as follows: Prostate cancer xenograft model, SCID male mice bearing LnCAP-Z2 tumors. The following applies: analysis of individual tumors, 21 days oral. Format: in vivo. As for the experimental part:
SCID male mice bearing LnCAP-Z2 tumors (mean volume˜160-190 mm^3) were treated daily by oral gavage with vehicle or drugs for 21 days. Individual tumor volume change by the end of the study. Percentage of change in individual tumor volumes as compared to the start of treatment.
FIG. 6. […] SCID male mice bearing LnCAP-Z2 tumors (mean volume˜160-190 mm^3) treated daily by oral gavage with vehicle or drugs for 21 days. Individual tumor volume change by the end of the study. Percentage of change in individual tumor volumes compared to the start of treatment.
FIG. 7. […] SCID male mice bearing LnCAP-Z2 tumors (mean volume˜160-190 mm^3) treated daily by oral gavage with vehicle or drugs for 21 days. (A)—Tumor weight by the end of the study. Mean±SEM are presented. […] (B)—PSA expression by the end of the study. Plasma samples were collected 24 hours after the last drug administration. Mean±SEM are presented.
The antitumor efficacy of (R)-1 was tested in a xenograft model of prostate cancer (FIGS. 6 and 7). Male immunodeficient mice harboring LnCAP-Z2 tumors were treated orally for 21 days with either vehicle or (R)-1 at 20 and 50 mg/kg once daily and at 20 mg/kg twice daily. […] Twenty-four hours after last treatment, blood samples were collected from all animals and used for measuring PSA expression and drug concentration. In addition, the concentration of drugs and Ki67 expression were measured in tumor samples.

The mark [3] stands for this setting: CD1 male mice, peroral, 100 mg/kg.

One may read the Ki as the equilibrium dissociation constant of an inhibitor or competing ligand from its target. High values mean weaker binding, low ones tighter binding. A word on the MTD: it is the highest dose tested that stayed within the study's limit of toxicity. A lower MTD goes with a narrow tolerated range.

Regarding `CNC(=O)c1ccc(N2C(=S)N(c3ccc(C#N)c(C(F)(F)F)c3)C(=O)C23CCOC3)cc1F` (racemic) [compound 1, 4-[3-(4-Cyano-3-trifluoromethyl-phenyl)-4-oxo-2-thioxo-7-oxa-1,3-diaza-spiro[4.4]non-1-yl]-2-fluoro-N-methyl-benzamide], the “AR antagonistic activity (in words)” value at androgen receptors was “comparable with that of Ia”.

In the case of `CNC(=O)c1ccc(N2C(=S)N(c3ccc(C#N)c(C(F)(F)F)c3)C(=O)[C@@]23CCOC3)cc1F` [(S)-1], the inhibition constant Ki on androgen receptors came out at 0.215 µM.

For `CNC(=O)c1ccc(N2C(=S)N(c3cnc(C#N)c(C(F)(F)F)c3)C(=O)C23CCC3)cc1F` [III], in data set [1] (single IV 1 mg/kg, 30 min), the concentration at 30 min is 0.251 ± 0.029 µg/mL, the Brain/Plasma was found to be 0.96 ± 0.03, the Prostate/Plasma is 1.94 ± 0.24 and the Brain was determined as 241 ± 21 ng/g. In data set [1] (single IV 1 mg/kg, 30 min), this compound returned a Plasma of 251 ± 29 ng/mL and a Prostate of 487 ± 73 ng/g. In data set [1] (single IV 1 mg/kg, 120 min), this compound yielded a concentration at 120 min of 0.153 ± 0.01 µg/mL, a Brain/Plasma of 1.15 ± 0.27, a Prostate/Plasma of 3.15 ± 0.94 and a Brain of 176 ± 31 ng/g. In data set [1] (single IV 1 mg/kg, 120 min), the Plasma was found to be 153 ± 10 ng/mL and the Prostate was determined as 482 ± 120 ng/g. Also, the “Positive control, % (CYP 3A induction)” value with CYP 3A (Concentration 1 μM) was found to be 16.3 ± 2.5%. Further, the “Positive control, % (CYP 3A induction)” value with CYP 3A (Concentration 10 μM) stood at 102.7 ± 13.0%.

In data set [1] (single IV 2 mg/kg, 30 min), `CNC(=O)c1ccc(N2C(=S)N(c3ccc(C#N)c(C(F)(F)F)c3)C(=O)C2(C)C)cc1F` [Ia, MDV3100] showed a concentration at 30 min of 0.263 ± 0.019 µg/mL, a Brain of 164 ± 19 ng/g, a Plasma of 263 ± 19 ng/mL and a Prostate of 102 ± 4 ng/g. In data set [1] (single IV 2 mg/kg, 120 min), the concentration at 120 min came to 0.377 ± 0.153 µg/mL, the Brain is recorded as 152 ± 31 ng/g, the Plasma turned out to be 377 ± 153 ng/mL and the Prostate is 124 ± 27 ng/g. The MTD at 5 days in data set [2] (CD1, mouse, in vivo, oral, male CD-1 mice, peroral once a day for 5 days) is ~30 mg/kg. In addition, the “p, body weight versus Placebo group” value in data set [2] (CD1 male mice, 100 mg/kg, 5th day) was 0.002. Besides, in data set [2] (setting [3]), the “body weight versus control animals (Placebo group)” value is “statistically differed” and the mortality entry is reported as “One animal died”. In addition, the mortality result in data set [2] (CD1 male mice, peroral, doses below 100 mg/kg (10 and 30 mg/kg)) is on record as “did not lead to death; also recorded: did not cause death”. Also, the “maximum tolerated dose (MTD)” value in data set [2] (male CD-1 mice, peroral once a day for 5 days) was “about 30 mg/kg”. Besides, the “effect on individual tumors (in words)” value in the data set with LnCAP-Z2 tumors is reported as “stimulate tumor regression”. In the data set on CYP 3A (Concentration 1 μM), the “Positive control, % (CYP 3A induction)” value worked out at 10.0 ± 2.0%. In addition, in the data set with CYP 3A (Concentration 10 μM), the “Positive control, % (CYP 3A induction)” value is on record as 73.3 ± 6.8%.
